The values that follow come from US20170209605A1, “CARBOHYDRATE FUNCTIONALIZED CATANIONIC SURFACTANT VESICLES FOR DRUG DELIVERY” (University of Maryland, College Park, priority 2007, published 2017).

The series in a line: Incorporation of glycoconjugate into SDBS-rich vesicles (SEC, colorimetric detection). It counts as physicochemical. The conditions noted are these: SDBS/CTAT vesicles, twelve carbon tail. The source says: In an experiment, glycoconjugates consisting of eight carbon tails were used. In all SDBS-rich vesicle test cases 18-25% of the conjugate eluted with the vesicle fractions. At the incorporation levels summarized in Table 1, the ratio of carbohydrate conjugate to surfactant is approximately 1:100. […] In another experiment, a glucose glycoconjugate with a twelve carbon tail, n-dodecyl-β-D-glucopyranoside (C12-glucose), was used. […] The method for preparing these vesicles is now described. Vesicles were prepared with the surfactants […], and C12-glu. […] Total surfactant concentration was kept constant at 27 mM. The mole ratio of SDBS to CTAT was 3:1 in all cases (70:30 w/w). For vesicle samples containing different mole fractions of C12-glu, the amount of SDBS and CTAT was adjusted accordingly to keep the stated ratio of ionic surfactants constant. […] Samples were then passed through a 0.45 μm syringe filter to remove impurity particles such as dust.

As to `CCCCCCCCCCCCO[C@@H]1O[C@H](CO)[C@@H](O)[C@H](O)[C@H]1O` [C12-glucose, n-dodecyl-β-D-glucopyranoside], the “share of the vesicle bilayer that can be composed of the glycoconjugate” value is given as “up to 40 mole percent”.
